Reference: patent US9994576B2, “Substituted pyrazolo[3,4-d]pyrimidines as kinase inhibitors” (PRINCIPIA BIOPHARMA INC., priority 2012, dated 2018)

Molecular target: protein target (Homo sapiens (Human), UniProt Q06187)
Test: Reversibility of binding (compound in solution before/after denaturation or digestion of target, HPLC-MS/MS)
Conditions: native (folded) target in excess over compound
Protocol: The following approach was developed to differentiate compounds that form irreversible covalent bond with their targets, such as non-cyano containing acrylamide compounds, from compound that form reversible covalent bond i.e., compounds and/or pharmaceutically acceptable salts of the present disclosure. […] The reactions were then treated with perturbations including both denaturation with 5 M guanidine hydrochloride and digestion with trypsin, disrupting proper folding of the target. […] The concentration of compound in solution was assessed both preceding and following perturbation using high performance liquid chromatography (HPLC) coupled to tandem mass spectrometry.

Sequence of protein target (Q06187 whole entry): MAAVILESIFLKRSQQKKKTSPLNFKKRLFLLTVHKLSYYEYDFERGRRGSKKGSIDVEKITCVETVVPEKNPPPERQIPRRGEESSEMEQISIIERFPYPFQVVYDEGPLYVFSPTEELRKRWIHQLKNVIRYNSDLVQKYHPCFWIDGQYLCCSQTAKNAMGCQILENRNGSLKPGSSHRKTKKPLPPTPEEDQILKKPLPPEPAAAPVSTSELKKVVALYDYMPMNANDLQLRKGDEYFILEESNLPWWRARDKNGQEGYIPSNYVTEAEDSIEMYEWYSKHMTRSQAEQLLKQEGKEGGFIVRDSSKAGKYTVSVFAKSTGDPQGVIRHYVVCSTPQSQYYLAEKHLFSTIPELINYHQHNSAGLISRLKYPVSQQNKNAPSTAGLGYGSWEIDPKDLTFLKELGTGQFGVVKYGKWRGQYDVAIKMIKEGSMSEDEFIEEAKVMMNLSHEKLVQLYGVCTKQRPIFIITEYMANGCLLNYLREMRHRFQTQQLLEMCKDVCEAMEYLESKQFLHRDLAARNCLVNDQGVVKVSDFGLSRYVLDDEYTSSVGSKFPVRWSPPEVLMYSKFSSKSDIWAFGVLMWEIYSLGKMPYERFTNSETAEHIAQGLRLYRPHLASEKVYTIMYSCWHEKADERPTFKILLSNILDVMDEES

- Compound in solution in the native state?: no
SMILES: CN(C1COC1)C(C)(C)C=C(C#N)C(=O)N1CCC[C@H]1Cn1nc(-c2ccc(Oc3ccccc3)cc2F)c2c(N)ncnc21 [Example 10, 2-[(2S)-2-[[4-amino-3-(2-fluoro-4-phenoxy-phenyl)pyrazolo[3,4-d]pyrimidin-1-yl]methyl]pyrrolidine-1-carbonyl]-4-methyl-4-[methyl(oxetan-3-yl)amino]pent-2-enenitrile]
